Experimental data reported in article PMC8561395 (Biochemistry, 2021).
Read-outs that look alike come from different tables or passages of the source.

Legend:
[1] = biological target: T1, SsoPTP (Saccharolobus solfataricus, UniProt Q97VZ7); experiment: Inhibition of SsoPTP activity by buffers, pNPP as substrate
T1 sequence (Q97VZ7 1-161): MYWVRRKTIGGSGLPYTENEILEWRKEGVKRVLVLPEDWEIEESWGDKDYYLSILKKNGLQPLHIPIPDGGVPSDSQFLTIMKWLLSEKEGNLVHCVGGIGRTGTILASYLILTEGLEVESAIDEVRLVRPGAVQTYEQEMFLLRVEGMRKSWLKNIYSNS

[2] = test system: bovine low molecular weight PTP; conditions: more strongly than observed for SsoPTP; cited from earlier work
[3] = biological target: T1, SsoPTP; experiment: Steady-state Michaelis-Menten kinetics with pNPP; format: biochemical, Sulfolobus solfataricus; conditions: read-out: KM for pNPP

SMILES	Inhibition of SsoPTP (in words) ([1]; pNPP substrate)	Ki [1]	also measured
CC(=O)O [Acetic acid]	no inhibitory effect		
O=S(=O)(O)CCCNC1CCCCC1 [CAPS]			Ki ([1]; pNPP substrate, 100 mM sodium acetate buffer pH 5.0, inhibitor 5–400 mM): 54 ± 11 mM
O=C(O)CC(O)(CC(=O)O)C(=O)O [Citric acid]		8 ± 1 mM	
O=S(=O)(O)CCN1CCN(CCO)CC1 [HEPES]		44 ± 8 mM	Strength of inhibition of bovine low molecular weight PTP relative to SsoPTP [2]: about 10 fold
O=S(=O)(O)CCCN1CCOCC1 [MOPS]	did not show measurable inhibition		
O=[N+]([O-])c1ccc(OP(=O)(O)O)cc1 [pNPP, p-nitrophenyl phosphate]			Km [3]: 3.4 mM
